In patent US20240041042A1, “1-(PYRIDYL)-5-AZINYLPYRAZOLE DERIVATIVES, AND THEIR USE FOR CONTROL OF UNDESIRED PLANT GROWTH” (Bayer Aktiengesellschaft, priority 2020, published 2024):
Read-outs that look alike come from different tables or passages of the source.

Legend:
Format in all cases: in vivo
[1] = test system: Abutilon theophrasti (ABUTH); assay: Pre-emergence herbicidal action against ABUTH; details: 100% = plants have died
Source text: Seeds of monocotyledonous and dicotyledonous weed plants and crop plants are placed in plastic or organic planting pots and covered with soil. The compounds of the invention, formulated in the form of wettable powders (WP) or as emulsion concentrates (EC), are then applied to the surface of the covering soil as aqueous suspension or emulsion with addition of 0.5% additive at a water application rate equivalent to 600 l/ha. After the treatment, the pots are placed in a greenhouse and kept under good growth conditions for the trial plants. After about 3 weeks, the effect of the preparations is scored visually in comparison with untreated controls as percentages. For example, 100% activity=the plants have died, 0% activity=like control plants.
Tables A1 to A13 below show the effects of selected compounds of the general formula (I) on various harmful plants and at an application rate corresponding to 320 g/ha or lower, which were obtained by the experimental procedure mentioned above. The appendices “a”, “b” and “c” give differentiation by dosage used with otherwise the same harmful plants tested.

[2] = test system: Alopecurus myosuroides (ALOMY); assay: Pre-emergence herbicidal action against ALOMY; details: scored visually after about 3 weeks, 100% = plants have died
In short: (§1)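 Read-out is visual percent damage relative to untreated pots, with 100% meaning dead plants and 0% meaning no difference, assessed roughly three weeks after treatment. Compounds were applied pre-emergence to the covering soil at up to 320 g/ha.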

[3] = test system: Amaranthus retroflexus (AMARE); assay: Pre-emergence herbicidal action against AMARE; details: visual scoring after about 3 weeks vs untreated controls
In short: as §1

Avena fatua (AVEFA) [4] = assay: Pre-emergence herbicidal action against AVEFA; details: visual scoring after about 3 weeks vs untreated controls
In short: as §1

[5] = test system: Echinochloa crus-galli (ECHCG); assay: Pre-emergence herbicidal action against ECHCG; details: dosage 320 g/ha
In short: as §1

Lolium rigidum (LOLRI) [6] = assay: Pre-emergence herbicidal action against LOLRI
In short: as §1

[7] = test system: Matricaria inodora (MATIN); assay: Pre-emergence herbicidal action against MATIN
In short: as §1

[8] = test system: Pharbitis purpurea (PHBPU); assay: Pre-emergence herbicidal action against PHBPU
In short: as §1

[9] = test system: Polygonum convolvulus (POLCO); assay: Pre-emergence herbicidal action against POLCO
In short: as §1

Setaria viridis (SETVI) [10] = assay: Pre-emergence herbicidal action against SETVI
In short: as §1

[11] = test system: Verconica persica (VERPE); assay: Pre-emergence herbicidal action against VERPE
In short: as §1

Viola tricolor (VIOTR) = assay: Pre-emergence herbicidal action against VIOTR
In short: as §1

[12] = test system: Abutilon theophrasti (ABUTH); assay: Post-emergence herbicidal action against ABUTH; details: 80 g/ha, visual rating about 3 weeks after treatment vs untreated controls (100% = plants have died, 0% = like control plants)
In short: (§2)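 Doses of 320 g/ha or lower, suffixes a, b and c marking different dosages, were applied post-emergence at the one-leaf stage in 600 l/ha water with 0.5% additive. Damage was assessed visually after about 3 weeks in the greenhouse.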

[13] = test system: Alopecurus myosuroides (ALOMY); assay: Post-emergence herbicidal action against ALOMY; details: 80 g/ha, visual rating about 3 weeks after treatment vs untreated controls (100% = plants have died, 0% = like control plants)
In short: as §2

[14] = test system: Amaranthus retroflexus (AMARE); assay: Post-emergence herbicidal action against AMARE; details: 80 g/ha, visual rating about 3 weeks after treatment vs untreated controls (100% = plants have died, 0% = like control plants)
In short: as §2

Avena fatua (AVEFA) [15] = assay: Post-emergence herbicidal action against AVEFA; details: 80 g/ha, visual rating about 3 weeks after treatment
In short: as §2

[16] = test system: Echinochloa crus-galli (ECHCG); assay: Post-emergence herbicidal action against ECHCG; details: dosage 80 g/ha
In short: as §2

Lolium rigidum (LOLRI) [17] = assay: Post-emergence herbicidal action against LOLRI; details: dosage 80 g/ha
In short: as §2

[18] = test system: Pharbitis purpurea (PHBPU); assay: Post-emergence herbicidal action against PHBPU; details: dosage 80 g/ha
In short: as §2

[19] = test system: Polygonum convolvulus (POLCO); assay: Post-emergence herbicidal action against POLCO; details: dosage 80 g/ha
In short: as §2

Setaria viridis (SETVI) [20] = assay: Post-emergence herbicidal action against SETVI; details: dosage 80 g/ha
In short: as §2

[21] = test system: Verconica persica (VERPE); assay: Post-emergence herbicidal action against VERPE; details: dosage 80 g/ha
In short: as §2

Oryza sativa (ORYSA) = details: crop plant compatibility
In short: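 Foliar application at the one-leaf stage: WP/EC formulation, 0.5% additive, 600 l/ha water. Greenhouse-grown in sandy loam. Endpoint is visual % injury relative to untreated controls at about 3 weeks.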

[22] = Dosage column 320 g/ha (title prints 3200 g/ha), scored visually after about 3 weeks
[23] = 20 g/ha, effect vs untreated controls
[24] = 80 g/ha, effect in comparison to untreated controls

`COC(=O)CCOC(=O)[C@@H](C)Oc1nn(-c2ccccn2)c(-c2cncc(F)c2)c1Br` [Example I-73] was tested, and the “Pre-emergence action against ABUTH” value ([1]; 80 g/ha, scored visually after about 3 weeks vs untreated controls, 0% = like control plants) was 80%, the “Pre-emergence action against ABUTH” value [1, 22] was 90% and the “Pre-emergence action against ALOMY” value ([2]; 80 g/ha) was 90%. The “Pre-emergence action against ALOMY” value ([2]; 320 g/ha) was 100%, the “Pre-emergence action against AMARE in %” value ([3]; 80 g/ha) was 100% and the “Pre-emergence action against AMARE in %” value ([3]; 320 g/ha) was 100%. For the same molecule, the “Pre-emergence action against AVEFA in %” value (Avena fatua (AVEFA) [4]; 320 g/ha) was 80%, the “Pre-emergence action against ECHCG in %” value [5] was 90% and the “Pre-emergence action against LOLRI in %” value (Lolium rigidum (LOLRI) [6]; dosage 80 g/ha) was 100%. For the same molecule, the “Pre-emergence action against LOLRI in %” value (Lolium rigidum (LOLRI) [6]; dosage 320 g/ha) was 100%, the “Pre-emergence action against MATIN in %” value ([7]; dosage 320 g/ha) was 90% and the “Pre-emergence action against PHBPU in %” value ([8]; dosage 320 g/ha) was 90%. The “Pre-emergence action against POLCO in %” value ([9]; dosage 80 g/ha) was 80%, the “Pre-emergence action against POLCO in %” value ([9]; dosage 320 g/ha) was 90% and the “Pre-emergence action against SETVI in %” value (Setaria viridis (SETVI) [10]; dosage 80 g/ha) was 90%. For the same molecule, the “Pre-emergence action against SETVI in %” value (Setaria viridis (SETVI) [10]; dosage 320 g/ha) was 100%, the “Pre-emergence action against VERPE in %” value ([11]; dosage 320 g/ha) was 100% and the “Pre-emergence action against VIOTR in %” value (Viola tricolor (VIOTR); 320 g/ha, Viola tricolor) was 100%. For the same molecule, the “Pre-emergence action against VIOTR in %” value (Viola tricolor (VIOTR); dosage 80 g/ha) was 100%, the “Post-emergence action against ABUTH in %” value [12] was 80% and the “Post-emergence action against ALOMY in %” value [13] was 100%. The “Post-emergence action against AMARE in %” value [14] was 90%, the “Post-emergence action against AVEFA in %” value (Avena fatua (AVEFA) [15]) was 80% and the “Post-emergence action against ECHCG in %” value [16] was 80%. For the same molecule, the “Post-emergence action against LOLRI in %” value (Lolium rigidum (LOLRI) [17]) was 80%, the “Post-emergence action against PHBPU in %” value [18] was 90% and the “Post-emergence action against POLCO in %” value [19] was 90%. For the same molecule, the “Post-emergence action against SETVI in %” value (Setaria viridis (SETVI) [20]) was 80%, the “Post-emergence action against VERPE in %” value [21] was 80% and the “Post-emergence action against ORYSA in %” value (Oryza sativa (ORYSA); [23]) was 0%. The “Post-emergence action against ORYSA in %” value (Oryza sativa (ORYSA); [24]) was 10%.

For `COC(=O)[C@@H](C)Oc1nn(-c2ccccn2)c(-c2cncc(F)c2)c1Br` [Example I-83], the “Pre-emergence action against ABUTH” value [1, 22] was 80%, the “Pre-emergence action against ALOMY” value ([2]; 80 g/ha) was 90% and the “Pre-emergence action against ALOMY” value ([2]; 320 g/ha) was 100%. For the same molecule, the “Pre-emergence action against AMARE in %” value ([3]; 80 g/ha) was 90%, the “Pre-emergence action against AMARE in %” value ([3]; 320 g/ha) was 100% and the “Pre-emergence action against AVEFA in %” value (Avena fatua (AVEFA) [4]; 80 g/ha) was 80%. For the same molecule, the “Pre-emergence action against AVEFA in %” value (Avena fatua (AVEFA) [4]; 320 g/ha) was 90%, the “Pre-emergence action against ECHCG in %” value [5] was 100% and the “Pre-emergence action against LOLRI in %” value (Lolium rigidum (LOLRI) [6]; dosage 80 g/ha) was 100%. For the same molecule, the “Pre-emergence action against LOLRI in %” value (Lolium rigidum (LOLRI) [6]; dosage 320 g/ha) was 100%, the “Pre-emergence action against MATIN in %” value ([7]; dosage 80 g/ha) was 90% and the “Pre-emergence action against MATIN in %” value ([7]; dosage 320 g/ha) was 100%. For the same molecule, the “Pre-emergence action against PHBPU in %” value ([8]; dosage 80 g/ha) was 80%, the “Pre-emergence action against PHBPU in %” value ([8]; dosage 320 g/ha) was 90% and the “Pre-emergence action against POLCO in %” value ([9]; dosage 80 g/ha) was 80%. For the same molecule, the “Pre-emergence action against POLCO in %” value ([9]; dosage 320 g/ha) was 90%, the “Pre-emergence action against SETVI in %” value (Setaria viridis (SETVI) [10]; dosage 80 g/ha) was 90% and the “Pre-emergence action against SETVI in %” value (Setaria viridis (SETVI) [10]; dosage 320 g/ha) was 100%. The “Pre-emergence action against VERPE in %” value ([11]; dosage 80 g/ha) was 90%, the “Pre-emergence action against VERPE in %” value ([11]; dosage 320 g/ha) was 100% and the “Pre-emergence action against VIOTR in %” value (Viola tricolor (VIOTR); 320 g/ha, Viola tricolor) was 100%. The “Pre-emergence action against VIOTR in %” value (Viola tricolor (VIOTR); dosage 80 g/ha) was 100%, the “Post-emergence action against ABUTH in %” value [12] was 90% and the “Post-emergence action against ALOMY in %” value [13] was 100%. For the same molecule, the “Post-emergence action against AMARE in %” value [14] was 90%, the “Post-emergence action against AVEFA in %” value (Avena fatua (AVEFA) [15]) was 100% and the “Post-emergence action against ECHCG in %” value [16] was 90%. For the same molecule, the “Post-emergence action against LOLRI in %” value (Lolium rigidum (LOLRI) [17]) was 90%, the “Post-emergence action against PHBPU in %” value [18] was 90% and the “Post-emergence action against SETVI in %” value (Setaria viridis (SETVI) [20]) was 90%. For the same molecule, the “Post-emergence action against VERPE in %” value [21] was 80%, the “Post-emergence action against ORYSA in %” value (Oryza sativa (ORYSA); [23]) was 0% and the “Post-emergence action against ORYSA in %” value (Oryza sativa (ORYSA); [24]) was 20%.
